Laboratory results reported in patent US20250082605A1 (priority 2016, published 2025).

Experiments:
TRPV1 afferents = assay: Immunofluorescence study for TRPV1 afferents after L2-L5 RTX administration; assay type: in vivo, rat
Source text: Additionally, an immunofluorescence study for TRPV1 afferents was made following administration at the L2-L5 levels. […] Within the T1-T5 levels, no reduction in TRPV1 afferents was shown following the L2-L5 injection. Within the heart, TRPV1 fluorescence remained on the surfaces of the myocardium and within the cardiac tissue.

[1] = tested on: cardiac sympathetic afferent reflex (CSAR); assay: Response to activation of the CSAR (MAP, RSNA) over 26 weeks after epidural or epicardial RTX; assay type: in vivo, rat
Description: (§1) The following Examples 1 through 9 discuss data from rats with induced CHF. The Examples show many improved indicators associated with RTX treatment in CHF subjects. The rat models provide for comparison of epidural administration of RTX against epicardial administration of RTX and against various controls. For the epicardial data, RTX was administered directly to the epicardium by swab during open surgery contemporaneously with induced myocardial infarction (coronary artery ligation).
(§2) For epidural application of RTX, a small midline incision was made in the region of the T13-L1 thoracic vertebrae. Following dissection of the superficial muscles, two small holes (approximately 2 mm by 2 mm) were made in the left and right sides of the T13 vertebra. A polyethylene catheter (PE-10) was inserted into the […] via the left hole and gently advanced about 5.5-6 cm to the left T1 level at which the first injection (6 μg/mL, 10 μL) was made at a very slow speed to minimize the diffusion of RTX. Then the catheter was pulled back about 0.5 cm to left T2, T3, and T4, respectively, to perform serial injections (10 μL each) in each segment. Then the catheter was withdrawn and the same injection was repeated on the right side. A silicone gel was used to seal the hole in the T13 vertebra. The skin overlying the muscle was closed with a 3-0 polypropylene suture. Simple interrupted sutures were used to close the skin.
FIGS. 3A-4B show experimental results for a rat study in accordance with an embodiment of the present application.

[2] = tested on: established hypertensive rat model; assay: MAP and heart rate in established hypertensive rats after lumbar (L2-L5) RTX administration; assay type: in vivo
Description: Blood pressure measurements are 8 hours average per day.
Example 12 describes an experiment in which RTX administration was made to the lumbar region of a rat population (L2-L5).
Blood pressure continued to increase above the pre-injection baseline level by the end of the study period.

hypertensive rat = settings: in vivo
TRPV1 = TRPV1 (Rattus norvegicus, UniProt O35433); assay: TRPV1 receptor intensity by vertebral level after epidural RTX injection at T1-T4; assay type: in vivo; set-up: from tissue; host or cells: rat tissue at vertebral levels C6-L4 after in vivo epidural RTX; settings: RTX injection at T1-T4 vertebral levels, FIG. 2
Source text: The nerves associated with the sympatho-excitation corresponding to increased cardiac sympathetic nerve activity are predominately found within the first four thoracic vertebral levels (Evans et al. (1953) N. Engl. J. Med. 249:791-796). Thus, administration to one or more of the first four thoracic vertebral levels may be beneficial because the nerves associated with cardiac sympathetic afferent nerve activity are predominately found within the first four thoracic vertebral levels. By treating these thoracic vertebral levels, denervation of these sympathetic afferent nerves will be substantially achieved with minimal or only partial denervation or ablation of nerves at other vertebral levels. […] Additionally, the small images inset on the figure show greater intensity of activity visible at the C6, C7, T6, T7, and L4 vertebral levels, as compared to the C8 through T5 vertebral levels.
For epidural application of RTX, a small midline incision was made in the region of the T13-L1 thoracic vertebrae. Following dissection of the superficial muscles, two small holes (approximately 2 mm by 2 mm) were made in the left and right sides of the T13 vertebra. […]

rats with induced CHF [3] = assay: Mean arterial pressure over 24 hours in CHF rats; assay type: in vivo, rat; settings: epidural RTX, 10-12 weeks after myocardial infarction
Description: The study was conducted 10-12 weeks after the myocardial infarction.
as §2
For each population, n=6-8. The study was conducted for a 10-12 week period after the myocardial infarction. […] Treatment with epidural RTX corresponds to a lower MAP for the CHF rat population.

rats with induced CHF [4] = assay: Long-term survival of rats with induced CHF over 28 weeks; assay type: in vivo, rat
Description: as §1, §2
FIG. 7 depicts the survival rate of rats with induced chronic heart failure with and without RTX treatment. In FIG. 7A, the treatment was epicardial. In FIG. 7B the treatment was epidural. […] In particular, without RTX treatment, seven of ten rats died during the 28-week period. But only two of nine rats with RTX treatment died during the same period.

rats with induced CHF [5] = assay: End-systolic and end diastolic pressure volume relationship in CHF rats; assay type: in vivo, rat
Source text: In each case, administration of vehicle or RTX and vehicle was epidural.
In each case, administration of vehicle or RTX and vehicle was epidural. […] Both significance measures were at the P<0.05 level.
as §1, §2
In each case, administration of vehicle or RTX and vehicle was epidural. […] CHF corresponds to a reduction in ESPVR, with appeared unaffected by epidural RTX.

[6] = tested on: rats with induced chronic heart failure (CHF); assay: Cardiac function in rats with induced chronic heart failure; assay type: in vivo, Sprague-Dawley rats
Description: Both significance measures were at the P<0.05 level.
as §1, §2
The experimental data included: body weight, heart weight, the ratio of heart weight to body weight (HW/BW), the ratio of wet lung weight to body weight (WLW/BW), the left ventricle end systolic pressure (LVESP), the left ventricle end diastolic pressure (LVEDP), maximum first derivative of left ventricular pressure (dp/dtmax), the minimum first derivative of left ventricular pressure (dp/dtmin), and infarct size. […] Both significance measures were at the P<0.05 level. […] The columns titled “Sham+vehicle” and “Sham+RTX” provide a comparison for sham rats without induced chronic heart failure, and without and with, respectively, epidural RTX treatment.
The experimental data included: body weight, heart weight, the ratio of heart weight to body weight (HW/BW), the ratio of wet lung weight to body weight (WLW/BW), mean arterial pressure (MAP), the left ventricle end diastolic pressure (LVEDP), heart rate, the maximum first derivative of left ventricular pressure (dp/dtmax), the minimum first derivative of left ventricular pressure (dp/dtmin), and infarct size. […] Both significance measures were at the P<0.05 level.

[7] = epidural RTX vs vehicle, weeks 1, 5-6, 9-11, 24-26, FIG. 3B
[8] = CHF + epidural RTX vs CHF + vehicle, P<0.05

TRPV1, sequence (O35433 whole entry): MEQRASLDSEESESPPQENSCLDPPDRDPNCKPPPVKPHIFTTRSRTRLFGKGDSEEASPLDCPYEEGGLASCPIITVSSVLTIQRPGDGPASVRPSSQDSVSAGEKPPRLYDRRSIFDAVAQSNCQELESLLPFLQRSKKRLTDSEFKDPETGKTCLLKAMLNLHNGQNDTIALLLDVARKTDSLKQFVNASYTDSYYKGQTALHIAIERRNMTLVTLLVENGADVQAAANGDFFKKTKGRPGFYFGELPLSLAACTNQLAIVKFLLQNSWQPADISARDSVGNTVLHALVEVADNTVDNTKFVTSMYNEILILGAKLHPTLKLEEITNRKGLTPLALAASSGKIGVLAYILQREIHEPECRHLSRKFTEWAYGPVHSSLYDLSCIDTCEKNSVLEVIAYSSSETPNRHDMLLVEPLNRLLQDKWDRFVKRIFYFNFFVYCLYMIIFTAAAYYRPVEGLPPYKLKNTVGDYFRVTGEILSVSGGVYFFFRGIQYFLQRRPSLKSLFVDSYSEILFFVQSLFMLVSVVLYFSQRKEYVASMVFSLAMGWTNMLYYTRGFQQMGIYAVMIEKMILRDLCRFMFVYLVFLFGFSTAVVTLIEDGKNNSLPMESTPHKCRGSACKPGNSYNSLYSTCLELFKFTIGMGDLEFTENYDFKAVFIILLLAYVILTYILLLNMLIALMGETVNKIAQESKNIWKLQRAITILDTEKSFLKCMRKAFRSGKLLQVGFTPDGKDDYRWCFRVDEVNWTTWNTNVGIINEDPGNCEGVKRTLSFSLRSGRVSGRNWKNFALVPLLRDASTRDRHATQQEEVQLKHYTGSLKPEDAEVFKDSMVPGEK

## C=C(C)[C@]12C[C@@H](C)[C@@]34O[C@](Cc5ccccc5)(O[C@@H]1[C@@H]3C=C(COC(=O)Cc1ccc(O)c(OC)c1)C[C@]1(O)C(=O)C(C)=C[C@@H]41)O2 [RTX, resiniferatoxin]
TRPV1 afferents
  TRPV1 afferents in DRG neurons, L2-L5 levels: elimination of most TRPV1 afferents
  TRPV1 afferents, L1 level: many TRPV1 afferents remained
  TRPV1 afferents, T1-T5 levels: no reduction
  TRPV1 fluorescence in the heart (surfaces of the myocardium and cardiac tissue): remained
[1]; epicardial RTX administration
  duration of cardiac sympathetic afferent ablation: 3-4 months
[1]; [7]
  mean arterial pressure (MAP) response to activation of the CSAR: substantial decrease
  renal sympathetic nerve activity (RSNA) response to activation of the CSAR: substantial decrease
[2]; RTX L2-L5
  heart rate following RTX injection: increase in heart rate
[2]; RTX L2-L5, after injection
  time over which heart rate increase subsides: 2 to 10 days
[2]; RTX L2-L5, after treatment
  time at which MAP returned to the pre-injection baseline: 15 to 20 days
[2]; RTX L2-L5, established hypertensive rats
  MAP following lumbar injection: reduced immediately
[2]; RTX to lumbar region L2-L5
  sustained treatment of hypertension: does not achieve the sustained treatment of hypertension
Hypertensive rat
  ABP, MAP and heart rate following injection: substantial short term increases
  average short-term increase in MAP over baseline: about 30 mmHg
  duration of transient increase in blood pressure, heart rate, or both: about five or ten
TRPV1
  reduced vanilloid (TRPV1) receptor intensity, localisation: generally localized to the four treated vertebral levels and the one or two vertebral levels proximate the treated vertebral levels
Rats with induced CHF [3]
  mean arterial pressure (MAP) over 24 hours: lower MAP
Rats with induced CHF [4]; 28 weeks
  survival improvement, epidural versus epicardial treatment: roughly comparable improvement
Rats with induced CHF [4]; epidural RTX at T1-T4, n=9 (without RTX seven of ten)
  rats that died during the 28-week period: two of nine
Rats with induced CHF [4]; epidural RTX vs no RTX, 28 weeks
  long-term survival rate: significantly higher
Rats with induced CHF [5]; CHF + epidural RTX vs population without CHF
  end diastolic pressure volume relationship (EDPVR), difference: not statistically significant
Rats with induced CHF [5]; CHF + epidural RTX vs untreated CHF
  end diastolic pressure volume relationship (EDPVR): statistically significantly less
Rats with induced CHF [5]; epidural RTX
  end-systolic pressure volume relationship (ESPVR), CHF-related reduction: unaffected
[6]; CHF + epidural RTX (CHF + vehicle: 380%)
  left ventricle end diastolic pressure, increase over sham: 60%
[6]; CHF + epidural RTX vs CHF + vehicle
  infarct size, difference: not being statistically significant
[6]; [8]
  heart weight: statistically significantly better
  heart weight as a percentage of body weight: statistically significantly better
  left ventricle end diastolic pressure: statistically significantly better
  minimum first derivative of left ventricular pressure (dp/dtmin): statistically significantly better
  wet lung weight as a percentage of body weight: statistically significantly better
[6]; FIG. 5 column D vs FIG. 6 column H
  cardiac function results, epidural versus epicardial administration: comparable to the results achieved by epicardial administration, or are in some cases better
